Assays:
B16-F10 [1] = assay: Cytotoxicity against mouse B16-F10 cells assessed as cell survival incubated for 24 hrs by alamarblue staining based analysis; type: functional; details: B16-F10, 24 h
[2] = Cytotoxicity against NF2-deficient mouse MEF cells assessed as cell survival incubated for 24 hrs by alamarblue staining based analysis; type: toxicity
MCF7 = assay: Cytotoxicity against human MCF7 cells assessed as inhibition of cell growth; type: functional, cell-based
JAR = assay: Cytotoxicity against human JAR cells assessed as inhibition of cell growth; type: functional, cell-based
U-87 MG = assay: Cytotoxicity against human U-87 MG cells assessed as inhibition of cell growth; type: functional, cell-based, U-87MG ATCC
HCT-116 = assay: Cytotoxicity against human HCT-116 cells assessed as inhibition of cell growth; type: functional, cell-based
B16-F10 [3] = assay: Antitumor activity against metastatic mouse B16-F10 cells implanted in C57BL/6 mouse assessed as number of lung metastases at 9 to 9.5 mg/kg, ip administered for 12 days by histological analysis (reference value: 150 +/- 7); type: functional; details: dose 9-9.5 mg/kg, time 12 day
B16-F10 [4] = assay: Antitumor activity against metastatic mouse B16-F10 cells implanted in C57BL/6 mouse assessed as number of lung metastases at 9 to 9.5 mg/kg, ip administered for 15 days by histological analysis (reference value: 175 +/- 10); type: functional; details: dose 9-9.5 mg/kg, time 15 day
B16-F10 [5] = assay: Antitumor activity against metastatic mouse B16-F10 cells implanted in C57BL/6 mouse assessed as number of lung metastases at 9 to 9.5 mg/kg, ip administered for 19 days by histological analysis (reference value: 190 +/- 9); type: functional; details: dose 9-9.5 mg/kg, time 19 day
B16-F10 [6] = assay: Antitumor activity against metastatic mouse B16-F10 cells implanted in C57BL/6 mouse assessed as number of lung metastases at 9 to 9.5 mg/kg, ip administered for 22 days by histological analysis (reference value: 223 +/- 12); type: functional; details: dose 9-9.5 mg/kg, time 22 day
B16-F10 [7] = assay: Antitumor activity against metastatic mouse B16-F10 cells implanted in C57BL/6 mouse assessed as number of lung metastases at 4.6 to 42 mg/kg, ip administered every 3rd day for 22 days measured on day 23 by histological analysis (reference value: 223 +/- 12); type: functional; details: dose 4.6-42 mg/kg, time 23 day

SMILES | IC50 (B16-F10 [1]) [µM] | IC50 at 24 h [2] [µM] | other results
CCOC(=O)C1=C(N)N(c2sc(C)c(C)c2C(=O)OCC)/C(=C/C(=O)c2ccc(Cl)cc2)C1=O | 57.3 | > 100 | –
CCOC(=O)C1=C(Nc2ccccc2)S/C(=C\C2CCCCC2)C1=O | – | – | IC50 (MCF7): 45.3 µM; IC50 (JAR): 95.2 µM
CCOC(=O)c1c(NC(=C\C(=O)c2ccc(C)cc2)/C(O)=C(\C#N)C(N)=O)sc2c1CCCC2 | 11.9 | > 100 | –
CCOC(=O)C1=C(N)N(c2sc3c(c2C(=O)OCC)CCCCC3)/C(=C/C(=O)c2ccccc2)C1=O | 36.2 | > 100 | –
CCOC(=O)/C(C#N)=C(O)/C(=C/C(=O)c1ccc(C)cc1)Nc1sc(C)c(C)c1C(=O)OCC | 44.2 | > 100 | –
CCOC(=O)c1c(N)sc(C(=O)Nc2ccccc2)c1-c1ccccc1 | – | – | IC50 (U-87 MG): 7.4 µM
CCOC(=O)C1=C(N)N(c2sc3c(c2C(=O)OCC)CCCC3)/C(=C/C(=O)c2ccc(OC)cc2)C1=O | > 100 | > 100 | –
CCOC(=O)C1=C2NC(=O)c3c(sc4c3CCCC4)N2/C(=C/C(=O)c2ccc(Cl)cc2)C1=O | 54.4 | > 100 | –
CCOC(=O)/C(C#N)=C(O)/C(=C/C(=O)c1ccc(OC)cc1)Nc1sc2c(c1C(=O)OCC)CCCC2 | 19.7 | > 100 | –
O=C(CSc1nc2sc3c(c2c(=O)n1Cc1ccccc1)CCCC3)NNC(=S)Nc1ccccc1 | – | – | IC50 (HCT-116): 5.33 µM
CCOC(=O)c1c(N/C(=C\C(=O)c2ccc(C)cc2)C(O)=C(C#N)C#N)sc2c1CCCCC2 | > 100 | > 100 | –
CCOC(=O)C1=C(N)N(c2sc3c(c2C(=O)OCC)CCCC3)/C(=C/C(=O)c2cccs2)C1=O | 57 | > 100 | –
CCOC(=O)c1c(N2C(N)=C(C(N)=O)C(=O)/C2=C\C(=O)c2ccc(OC)cc2OC)sc2c1CCCC2 | 48.2 | > 100 | –
CCOC(=O)/C(C#N)=C(O)/C(=C/C(=O)c1ccc(C)cc1)Nc1sc2c(c1C(=O)OCC)CCCC2 | 28.9 | > 100 | –
CCOC(=O)C1=C2NC(=O)c3c(sc4c3CCCC4)N2/C(=C/C(=O)c2ccc(OC)cc2OC)C1=O | 32.6 | > 100 | –
CCOC(=O)C1=C2NC(=O)c3c(sc4c3CCCC4)N2/C(=C/C(=O)c2ccc(C)cc2)C1=O | 40.5 | > 100 | –
CC(=O)O[C@H]1C(=O)[C@@]2(C)[C@H]([C@H](OC(=O)c3ccccc3)[C@]3(O)C[C@H](OC(=O)[C@H](O)[C@@H](NC(=O)c4ccccc4)c4ccccc4)C(C)=C1C3(C)C)[C@]1(OC(C)=O)CO[C@@H]1C[C@@H]2O [PACLITAXEL] | – | – | Activity (B16-F10 [3]): 158; Activity (B16-F10 [4]): 125; Activity (B16-F10 [5]): 97; Activity (B16-F10 [6]): 80; Activity (B16-F10 [7]): 50
CCOC(=O)C1=C(N)N(c2sc3c(c2C(=O)OCC)CCCCC3)/C(=C/C(=O)c2ccc(C)cc2)C1=O | 25.2 | > 100 | –
N#CC1=C2NC(=O)c3c(sc4c3CCCCCC4)N2/C(=C/C(=O)c2ccccc2)C1=O | 12.6 | > 100 | –
CCOC(=O)C1=C2NC(=O)c3c(sc(C)c3C)N2/C(=C/C(=O)c2ccc(C)cc2)C1=O | 43.6 | > 100 | –
CCOC(=O)c1c(N2C(N)=C(C#N)C(=O)/C2=C\C(=O)c2ccc(OC)cc2)sc2c1CCCCC2 | 9.1 | > 100 | –
CCOC(=O)c1c(N/C(=C\C(=O)c2ccc(OC)cc2)C(O)=C(C#N)C#N)sc2c1CCCCC2 | > 100 | > 100 | –

SMILES | IC50 (B16-F10 [1]) [µM] | IC50 at 24 h [2] [µM] | other results
CCOC(=O)c1c(NC(=C\C(=O)c2ccc(C)cc2)/C(O)=C(\C#N)C(N)=O)sc(C)c1C | 17.9 | > 100 | –
CCOC(=O)c1c(NC(=C\C(=O)c2ccccc2)/C(O)=C(\C#N)C(N)=O)sc2c1CCCC2 | 14.1 | > 100 | –
CCOC(=O)c1c(N2C(N)=C(C(N)=O)C(=O)/C2=C\C(=O)c2ccc(OCC)cc2)sc2c1CCCC2 | > 100 | > 100 | –
CCOC(=O)C1=C2NC(=O)c3c(sc4c3CCCC4)N2/C(=C/C(=O)c2cccs2)C1=O | 58.6 | > 100 | –
NC(=O)C1=C2NC(=O)c3c(sc4c3CCCCC4)N2/C(=C/C(=O)c2ccccc2)C1=O | 24.5 | > 100 | –
Cc1ccc(C(=O)/C=C2\C(=O)C(C#N)=C3NC(=O)c4c(sc5c4CCCCC5)N32)cc1 | 8.8 | > 100 | –
CCOC(=O)c1c(N/C(=C\C(=O)c2ccc(OC)cc2)C(O)=C(C#N)C#N)sc2c1CCCC2 | > 100 | > 100 | –
CCOC(=O)C1=C(N)N(c2sc3c(c2C(=O)OCC)CCCC3)/C(=C/C(=O)c2ccccc2)C1=O | 46.7 | > 100 | –
CCOC(=O)C1=C2NC(=O)c3c(sc4c3CCCCCC4)N2/C(=C/C(=O)c2ccccc2)C1=O | 23.6 | > 100 | –
CCOC(=O)c1c(N2C(N)=C(C(N)=O)C(=O)/C2=C\C(=O)c2ccccc2)sc2c1CCCC2 | 52.1 | > 100 | –
CCOC(=O)C1=C2NC(=O)c3c(sc(C)c3C)N2/C(=C/C(=O)c2ccc(Cl)cc2)C1=O | 64.6 | > 100 | –
CCOC(=O)c1c(N2C(N)=C(C(N)=O)C(=O)/C2=C\C(=O)c2ccc(Cl)cc2)sc2c1CCCC2 | 56.5 | > 100 | –
CCOC(=O)/C(C#N)=C(O)/C(=C/C(=O)c1ccccc1)Nc1sc2c(c1C(=O)OCC)CCCC2 | 38.6 | > 100 | –
COc1ccc(C(=O)/C=C2\C(=O)C(C(N)=O)=C3NC(=O)c4c(sc5c4CCCC5)N32)cc1 | 42.6 | > 100 | –
CCOC(=O)c1c(N2C(N)=C(C(N)=O)C(=O)/C2=C\C(=O)c2ccccc2)sc2c1CCCCC2 | 22.2 | > 100 | –
CCOC(=O)C1=C(N)N(c2sc3c(c2C(=O)OCC)CCCC3)/C(=C/C(=O)c2ccc(C)cc2)C1=O | 68.4 | > 100 | –
NC(=O)C1=C2NC(=O)c3c(sc4c3CCCC4)N2/C(=C/C(=O)c2ccccc2)C1=O | 56.9 | > 100 | –
CCOC(=O)C1=C(N)N(c2sc(C)c(C)c2C(=O)OCC)/C(=C/C(=O)c2ccc(OC)cc2)C1=O | 41.4 | > 100 | –
CCOC(=O)C1=C2NC(=O)c3c(sc4c3CCCC4)N2/C(=C/C(=O)c2ccccc2)C1=O | 46.9 | > 100 | –
CCOC(=O)C1=C(N)N(c2sc(C)c(C)c2C(=O)OCC)/C(=C/C(=O)c2ccccc2)C1=O | 41.2 | > 100 | –
CCOC(=O)c1c(N2C(N)=C(C(N)=O)C(=O)/C2=C\C(=O)c2ccc(OC)cc2)sc2c1CCCC2 | 48.1 | > 100 | –
CCOC(=O)C1=C(N)N(c2sc3c(c2C(=O)OCC)CCCC3)/C(=C/C(=O)c2ccc(OC)cc2OC)C1=O | 54.1 | > 100 | –

— ChEMBL document CHEMBL5325431, “Synthesis of thieno[3,2-e]pyrrolo[1,2-a]pyrimidine derivatives and their precursors containing 2-aminothiophenes fragments as anticancer agents for therapy of pulmonary metastatic melanoma” (Eur J Med Chem, 2023)
